Earlier results in patent US20260191871A1, “USE OF ANTIVIRAL AGENTS, COMPOSITION OF MATTER, COMBINATION PREPARATIONS/AGENTS TO TREAT CHRONIC DISEASES ASSOCIATED WITH EPSTEIN-BARR VIRUS AND OTHER HUMAN HERPES VIRUSES” (EPIPHANY BIOSCIENCES, priority 2022, published 2026).

How the values were obtained:
[1] = test system: human varicella zoster virus (VZV)
[2] = test system: human herpesvirus-6 (HHV-6)
[3] = test system: Epstein-Barr virus (EBV)
[4] = test system: HSV-1
[5] = test system: HSV-2
[6] = test system: CMV
[7] = test system: EBV
[8] = human, multiple dosing, total daily doses of up to 6.0 g
[9] = test system: zoster; details: suspension at 250, 500 and 750 mg twice daily for 7 days, zoster patients, acyclovir as control
[10] = compared with the other polymorphic forms (O'Neill et al. '456)

Question: Which results are given for `Nc1nc2c(ncn2C[C@H](CO)CCO)c(=O)[nH]1` [Formula H2G]?
Answer: activity against human varicella zoster virus (VZV) [1]: potent activity; activity against human herpesvirus-6 (HHV-6) [2]: potent activity; activity against Epstein-Barr virus (EBV) [3]: potent activity; activity against HSV-1 [4]: potent activity; activity against HSV-2 [5]: potent activity

Question: Which results are given for `CCCCCCCCCCCCCCCCCC(=O)OC[C@H](CCOC(=O)[C@@H](N)C(C)C)Cn1cnc2c(=O)nc(N)[nH]c21` [valomaciclovir stearate, [(2R)-4-[(2S)-2-amino-3-methylbutanoyl]oxy-2-[(2-amino-6-oxo-3H-purin-9-yl)methyl]butyl]octadecanoate]?
Answer: impact on CMV [6]: does not impact CMV; replication of EBV [7]: suppresses replication of EBV; safety and tolerability [8]: safe and well tolerated; zoster lesion healing [9]: proof-of-concept for zoster lesion healing

Question: With `CCCCCCCCCCCCCCCCCC(=O)OC[C@H](CCOC(=O)[C@@H](N)C(C)C)Cn1cnc2c(=O)[nH]c(N)nc21` [Polymorph A] as the compound, how does the “thermodynamic stability among polymorphs of valomaciclovir stearate” value [10] read?
Answer: thermodynamically the most stable polymorph
